Data as given in article PMC7464552, “Structural Basis of Beneficial Design for Effective Nicotinamide Phosphoribosyltransferase Inhibitors” (Molecules, 2020).

Experiments:
[1] = tested on: NAD+ levels in the cancer cells; assay: Reduction of NAD+ levels in the cancer cells after 24 h-treatment; type: cell-based, human
Experimental: (§1) To confirm the marked differences of anti-NAMPT activities between 3a and 3b, the anti-proliferation effects of these inhibitors on the human colon cancer cell line HCT116 were examined after continuous exposure for 72 h. […] In addition, there was little cytotoxicity on non-cancer cell lines, such as TIG-120, WI38 and MRC-5 cells. Both 3a and 3b caused more than 90% reduction of NAD^+ levels in the cancer cells after 24 h-treatment and thereby induced cell death.

recombinant NAMPT = target: T1, recombinant NAMPT (Homo sapiens, UniProt P43490); assay: Enzymatic NAMPT assay (CycLex NAMPT colorimetric coupled-enzyme reaction system); type: biochemical; details: for IC50: titration curves of Figure 3a, coupled-enzyme colorimetric assay, read-out: IC50 (NAMPT inhibitory activity)
T1 construct: purchased MEDICAL & BIOLOGICAL LABORATORIES CO., LTD; (CycLex NAMPT Colorimetric Assay Kit)
T1 sequence (P43490 whole entry): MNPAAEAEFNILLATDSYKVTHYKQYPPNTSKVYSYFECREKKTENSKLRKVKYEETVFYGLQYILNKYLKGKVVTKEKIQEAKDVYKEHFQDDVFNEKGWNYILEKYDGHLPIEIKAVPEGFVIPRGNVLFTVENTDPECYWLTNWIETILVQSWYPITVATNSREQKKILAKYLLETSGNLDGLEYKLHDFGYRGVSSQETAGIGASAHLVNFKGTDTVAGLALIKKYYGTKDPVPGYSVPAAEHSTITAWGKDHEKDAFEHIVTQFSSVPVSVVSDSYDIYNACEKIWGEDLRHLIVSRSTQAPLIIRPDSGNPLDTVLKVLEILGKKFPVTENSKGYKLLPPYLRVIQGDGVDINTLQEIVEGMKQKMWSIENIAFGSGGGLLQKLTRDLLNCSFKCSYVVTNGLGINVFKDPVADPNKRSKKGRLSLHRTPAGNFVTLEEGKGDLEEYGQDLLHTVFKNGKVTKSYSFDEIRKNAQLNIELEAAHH
Experimental: For the inhibitory effects of 3a and 3b on NAMPT activity, recombinant NAMPT activity was measured using a coupled-enzyme reaction system (CycLex NAMPT Colorimetric Assay Kit: MEDICAL & BIOLOGICAL LABORATORIES CO., LTD., Nagoya, Japan) according to the manufacturer’s instructions, as described previously. Briefly, NAMPT enzyme and tested compounds were put on the 96-well transparent plate. […] After a brief incubation, the absorbance of the samples was detected at 450 nm on every 10 min until 60 min using a SYNERGY HTX (BioTek Instruments, Inc.; Winooski, VT, USA). The inhibition rates were calculated by the initial slope of the absorbance of the tested samples divided by that of the control wells. The IC50 values for the samples were calculated by 4-parameter logistic regression using Image J 1.48v (https://imagej.nih.gov/ij/).
Figure 3 Biochemical properties of 3a and 3b. […] NAMPT activity was measured using a coupled-enzyme reaction system (CycLex NAMPT colorimetric assay kit) in 96-well plate format using the one-step method. Data are the averages of three independent experiments, and the bars indicate the standard error (SE) values. (b) The anti-proliferative effects of 3a (circle) and 3b (triangle) on HCT116 cells were investigated as described previously. HCT116 cells were treated with the indicated concentrations of each inhibitor with (closed symbol) or without (open symbol) 100 μM NMN for 72 h. The cell activity (% of control) was measured by use of the WST-8 assay. Data are presented as the means of three independent experiments ± SE, and the bars indicate the SE values.

HCT116 cells = assay: Cell activity (anti-proliferation) assay, WST-8, 72 h; type: cell-based, human; details: for rescue of HCT116 cells from cell death by supplementation of NMN: 100 μM NMN in the cell culture medium, 72 h; for EC50: Homo sapiens, HCT-116, read-out: 50% effective concentration (EC50), anti-proliferation, HCT116, continuous exposure for 72 h, WST-8
Experimental: as §1
HCT116 cell was obtained from American Type Culture Collection (ATCC) (Manassas, US) and cultured in Dulbecco’s modified Eagle medium (DMEM) (FUJIFILM Wako Pure Chemical Corporation) supplemented with 10% of fetal bovine serum (Biosera Europe; Nuaillé, France), 100 Units/mL of penicillin G and 100 μg/mL of Streptomycin (FUJIFILM Wako Pure Chemical Corporation).
One thousand HCT116 cells were inoculated into the 96-well transparent cell culture plate and cultured for 24 h. The medium was changed to new medium that contained the tested compounds and was further cultivated for 72 h. Following the culture, 1/10 volume of the WST-8 reagent (FUJIFILM Wako Pure Chemical Corporation) was added and incubated for 1 h. After the incubation, the absorbance of the samples was detected at 450 nm using a SYNERGY HTX (BioTek Instruments, Inc.). Cell activity was expressed as percentage of control cells treated with vehicle alone.
Figure 3 Biochemical properties of 3a and 3b. (a) The inhibitory activities of 3a (open circle), 3b (open triangle) and 1 (open square) against NAMPT enzyme were examined, as described previously. NAMPT activity was measured using a coupled-enzyme reaction system (CycLex NAMPT colorimetric assay kit) in 96-well plate format using the one-step method. Data are the averages of three independent experiments, and the bars indicate the standard error (SE) values. (b) The anti-proliferative effects of 3a (circle) and 3b (triangle) on HCT116 cells were investigated as described previously. HCT116 cells were treated with the indicated concentrations of each inhibitor with (closed symbol) or without (open symbol) 100 μM NMN for 72 h. The cell activity (% of control) was measured by use of the WST-8 assay. Data are presented as the means of three independent experiments ± SE, and the bars indicate the SE values.

fold stronger NAMPT inhibitory activity than 1 (recombinant NAMPT; ratio of IC50 values, versus 1)	IC50 (recombinant NAMPT)	EC50 (HCT116 cells)	fold weaker NAMPT inhibitory activity than 3a (recombinant NAMPT; ratio of IC50 values, versus 3a)	fold higher EC50 than 3a (HCT116 cells; HCT116, 72 h, ratio of EC50 values, versus 3a)	Compound	reduction of NAD+ levels [1]	rescue of HCT116 cells from cell death by supplementation of NMN (HCT116 cells)
approximately 5 fold	110 nM	0.48 nM	–	–	O=C(NCCCCC1CCN(C(=O)c2ccccc2)CC1)c1cc2cnccc2[nH]1 [Compound 3a, N-(4-(1-benzoylpiperidin-4-yl)butyl)-1H-pyrrolo[3,2-c]pyridine-2-carboxamide]	more than 90%	significantly rescue
–	5060 nM	87.5 nM	about 50 fold	approximately 200 fold	O=C(NCCCCN1CCN(C(=O)c2ccccc2)CC1)c1cc2cnccc2[nH]1 [Compound 3b, N-(4-(4-Benzoylpiperazin-1-yl)butyl)-1H-pyroro[3,2-c]pyridine-2-carboxamide]	more than 90%	significantly rescue
